One molecule from publication PMC12410356 (International Journal for Parasitology: Drugs and Drug …, 2025) can be followed below.

SMILES strings stand for the structures. Where two headings read alike, the source gives them in different places.

This series deals with Reuber rat hepatoma (RH) cells. The series is described as follows: Mammalian cell toxicity, resazurin assay. It is filed as cell-based. Particulars: for IC50: 5 days incubation, mean ± SD. The protocol: Mammalian cell toxicity on RH cells was measured as described in [Rufener et al. (2018)] with few alterations. Briefly, confluent (50′000 cells/well) and pre-confluent (5′000 cells/well) were seeded into 96-well plates in DMEM supplemented with 10 % FBS, penicillin (100 U/mL), streptomycin (100 μg/mL) and tetracycline (5 μg/mL) and incubated at 37 °C under a humid, 5 % CO2 atmosphere for 24 h and 5 h respectively. Alexidine, ESI-09 and MMV1581545 were added to final concentrations ranging from 120 to 0.49 μM (1:3 serial dilution) to each well and then cells were incubated at 37 °C under a humid, 5 % CO2 atmosphere for 5 days. To measure viability, the medium was removed, 180 μL of PBS was added to the cells and resazurin was added to each well to a final concentration of 10 mg/L. The cells were then allowed to process the resazurin at RT for 1 h. Fluorescence was measured on a HIDEX Sense microplate reader. Measurements were performed in triplicates and IC50 values were calculated in R using the three parameter Weibull type 1 model for three independent experiments ([Ritler et al., 2020]).
(Resazurin is reduced to fluorescent resorufin, in cell work by metabolically active cells.)

What is called IC50 is the concentration that inhibits the measured activity by half. As for `CC(C)(C)c1cc(C(=O)/C(C#N)=N/Nc2cccc(Cl)c2)no1` [ESI-09], the “toxicity against mammalian cell line (in words)” value (RH cells counter-screen) was “moderate toxicity”. Further, the IC50 came out at 37.3 ± 0.73 µM (Rattus norvegicus, 120 h, confluent, read-out: IC50 confluent RH cells); 9.02 ± 1.3 µM (Rattus norvegicus, 120 h, pre-confluent, read-out: IC50 pre-confluent RH cells); 9.03 ± 1.3 µM (pre-confluent, read-out: IC50 pre-confluent RH cells).
